# Experimental data published in the NIST ThermoML archive (doi:10.1021/je0201323).
# ± gives the expanded uncertainty stated by the source.
# Key:
# [1] = for surface tension liquid-gas: Pendant drop shape; for mass density: 101.3 kPa, Liquid, vibrating tube
# [2] = xn = mol fraction of the nth substance listed; conditions: x1 = 1; for mass density: 101.3 kPa, Liquid, vibrating tube; for surface tension liquid-gas: Pendant drop shape
Compound,mass density ([1]; 278.15 K),mass density ([1]; 283.15 K),surface tension liquid-gas ([1]; 287.81 K),mass density ([1]; 288.15 K),mass density ([1]; 293.15 K),surface tension liquid-gas ([1]; 297.82 K),mass density ([1]; 298.15 K),mass density ([1]; 303.15 K),surface tension liquid-gas ([1]; 307.86 K),mass density ([1]; 308.15 K),mass density ([1]; 313.15 K),surface tension liquid-gas ([1]; 317.86 K),mass density ([1]; 318.15 K),mass density ([1]; 323.15 K),surface tension liquid-gas ([1]; 327.88 K),mass density ([1]; 328.15 K),mass density ([1]; 333.15 K),surface tension liquid-gas ([1]; 337.88 K),further results
Cc1ccccc1 [toluene],880.3 ± 0.2 kg/m3,875.9 ± 0.2 kg/m3,28.93 ± 0.31 mN/m,871.4 ± 0.2 kg/m3,866.9 ± 0.2 kg/m3,27.76 ± 0.3 mN/m,862.4 ± 0.2 kg/m3,857.8 ± 0.2 kg/m3,26.6 ± 0.29 mN/m,853.2 ± 0.2 kg/m3,848.6 ± 0.2 kg/m3,25.46 ± 0.28 mN/m,843.9 ± 0.2 kg/m3,839.2 ± 0.2 kg/m3,24.29 ± 0.27 mN/m,834.5 ± 0.2 kg/m3,829.8 ± 0.2 kg/m3,23.22 ± 0.26 mN/m,surface tension liquid-gas ([1]; 277.85 K): 30.11 ± 0.32 mN/m; surface tension liquid-gas ([1]; 302.83 K): 27.17 ± 0.3 mN/m; surface tension liquid-gas ([1]; 312.87 K): 26.03 ± 0.29 mN/m
CC(C)=O [acetone],,,23.94 ± 0.27 mN/m,,,22.78 ± 0.26 mN/m,,,21.59 ± 0.25 mN/m,,,20.33 ± 0.24 mN/m,,,19.01 ± 0.23 mN/m,,,,
CCCCCCC [heptane] + Cc1ccccc1,,,,,,,,,,,,,,,,,,,mass density ([2]; 278.15 K): 696.3 ± 0.4 kg/m3; mass density ([2]; 283.15 K): 692.2 ± 0.4 kg/m3; surface tension liquid-gas ([2]; 287.81 K): 20.7 ± 0.26 mN/m; mass density ([2]; 288.15 K): 688 ± 0.4 kg/m3; mass density ([2]; 293.15 K): 683.8 ± 0.4 kg/m3; surface tension liquid-gas ([2]; 297.82 K): 19.63 ± 0.25 mN/m; mass density ([2]; 298.15 K): 679.5 ± 0.4 kg/m3; mass density ([2]; 303.15 K): 675.2 ± 0.4 kg/m3; surface tension liquid-gas ([2]; 307.86 K): 18.68 ± 0.24 mN/m; mass density ([2]; 308.15 K): 670.9 ± 0.4 kg/m3; mass density ([2]; 313.15 K): 666.5 ± 0.3 kg/m3; surface tension liquid-gas ([2]; 317.86 K): 17.76 ± 0.24 mN/m; mass density ([2]; 318.15 K): 662.1 ± 0.3 kg/m3; mass density ([2]; 323.15 K): 657.7 ± 0.3 kg/m3; surface tension liquid-gas ([2]; 327.88 K): 16.68 ± 0.23 mN/m; mass density ([2]; 328.15 K): 653.2 ± 0.3 kg/m3; mass density ([2]; 333.15 K): 648.7 ± 0.3 kg/m3
C1CCCCC1 [cyclohexane],,,25.34 ± 0.28 mN/m,,,24.2 ± 0.27 mN/m,,,23.02 ± 0.26 mN/m,,,21.84 ± 0.25 mN/m,,,20.71 ± 0.24 mN/m,,,,surface tension liquid-gas ([1]; 279.33 K): 26.37 ± 0.29 mN/m; surface tension liquid-gas ([1]; 282.82 K): 25.99 ± 0.29 mN/m; surface tension liquid-gas ([1]; 337.93 K): 19.57 ± 0.24 mN/m
CCCCCCC [heptane],696.3 ± 0.4 kg/m3,692.2 ± 0.4 kg/m3,20.7 ± 0.26 mN/m,688 ± 0.4 kg/m3,683.8 ± 0.4 kg/m3,19.63 ± 0.25 mN/m,679.5 ± 0.4 kg/m3,675.2 ± 0.4 kg/m3,18.68 ± 0.24 mN/m,670.9 ± 0.4 kg/m3,666.5 ± 0.3 kg/m3,17.76 ± 0.24 mN/m,662.1 ± 0.3 kg/m3,657.7 ± 0.3 kg/m3,16.68 ± 0.23 mN/m,653.2 ± 0.3 kg/m3,648.7 ± 0.3 kg/m3,15.79 ± 0.22 mN/m,surface tension liquid-gas ([1]; 277.93 K): 21.73 ± 0.27 mN/m; surface tension liquid-gas ([1]; 282.83 K): 21.18 ± 0.26 mN/m; surface tension liquid-gas ([1]; 292.81 K): 20.17 ± 0.26 mN/m; surface tension liquid-gas ([1]; 302.83 K): 19.15 ± 0.25 mN/m; surface tension liquid-gas ([1]; 312.86 K): 18.17 ± 0.24 mN/m; surface tension liquid-gas ([1]; 322.86 K): 17.22 ± 0.23 mN/m; surface tension liquid-gas ([1]; 332.91 K): 16.21 ± 0.23 mN/m; surface tension liquid-gas ([1]; 342.92 K): 15.29 ± 0.22 mN/m
CN1CCCC1=O [N-methylpyrrolidone],,,,,,,,,,,,,,,,,,35.66 ± 0.36 mN/m,surface tension liquid-gas ([1]; 277.84 K): 42.61 ± 0.42 mN/m; surface tension liquid-gas ([1]; 287.8 K): 41.35 ± 0.41 mN/m; surface tension liquid-gas ([1]; 297.81 K): 40.25 ± 0.4 mN/m; surface tension liquid-gas ([1]; 307.85 K): 39.1 ± 0.39 mN/m; surface tension liquid-gas ([1]; 317.85 K): 37.91 ± 0.38 mN/m; surface tension liquid-gas ([1]; 327.89 K): 36.8 ± 0.37 mN/m
CN(C)C=O [dimethylformamide],963 ± 0.3 kg/m3,958.3 ± 0.3 kg/m3,36.96 ± 0.38 mN/m,953.7 ± 0.3 kg/m3,949.1 ± 0.3 kg/m3,35.83 ± 0.37 mN/m,944.5 ± 0.3 kg/m3,939.9 ± 0.3 kg/m3,34.65 ± 0.36 mN/m,935.4 ± 0.3 kg/m3,930.9 ± 0.3 kg/m3,33.37 ± 0.35 mN/m,926.3 ± 0.3 kg/m3,921.7 ± 0.3 kg/m3,32.03 ± 0.34 mN/m,917.9 ± 0.2 kg/m3,913.2 ± 0.2 kg/m3,,surface tension liquid-gas ([1]; 277.85 K): 38.16 ± 0.39 mN/m; surface tension liquid-gas ([1]; 327.89 K): 32.03 ± 0.34 mN/m
Cc1ccccc1 [toluene] + CN(C)C=O,,,,,,,,,,,,,,,,,,,mass density ([2]; 278.15 K): 880.3 ± 0.2 kg/m3; mass density ([2]; 283.15 K): 875.9 ± 0.2 kg/m3; surface tension liquid-gas ([2]; 287.81 K): 28.93 ± 0.31 mN/m; mass density ([2]; 288.15 K): 871.4 ± 0.2 kg/m3; mass density ([2]; 293.15 K): 866.9 ± 0.2 kg/m3; surface tension liquid-gas ([2]; 297.82 K): 27.76 ± 0.3 mN/m; mass density ([2]; 298.15 K): 862.4 ± 0.2 kg/m3; mass density ([2]; 303.15 K): 857.8 ± 0.2 kg/m3; surface tension liquid-gas ([2]; 307.86 K): 26.6 ± 0.29 mN/m; mass density ([2]; 308.15 K): 853.2 ± 0.2 kg/m3; mass density ([2]; 313.15 K): 848.6 ± 0.2 kg/m3; surface tension liquid-gas ([2]; 317.86 K): 25.46 ± 0.28 mN/m; mass density ([2]; 318.15 K): 843.9 ± 0.2 kg/m3; mass density ([2]; 323.15 K): 839.2 ± 0.2 kg/m3; surface tension liquid-gas ([2]; 327.88 K): 24.29 ± 0.29 mN/m; mass density ([2]; 328.15 K): 834.5 ± 0.2 kg/m3; mass density ([2]; 333.15 K): 829.8 ± 0.2 kg/m3
